# Data: ChEMBL document CHEMBL5247655, “Simplified Derivatives of Tetrandrine as Potent and Specific P-gp Inhibitors to Reverse Multidrug Resistance in Cancer Chemotherapy” (J Med Chem, 2023)
# Legend:
# ECa-109 cell line [1] = test: Cytotoxicity against vincristine resistant human Eca-109 cells incubated for 48 hrs by CCK-8 method relative to control; format: functional; set-up: concentration or dose not given beside the values
# ECa-109 cell line [2] = test: Reversal of vincristine-resistance in human Eca-109 cells assessed as fold reversal by measuring cell viability incubated for 48 hrs by CCK-8 method relative to vincristine alone; format: functional
# [3] = target: ATP-dependent translocase ABCB1 (Homo sapiens, UniProt P08183); test: Binding affinity to P-gp in vincristine resistant human Eca-109 cells assessed as stabilization of protein at 67 degree C at 100 uM incubated for 30 mins by thermal shift assay; format: cell-based; conditions: eca-109, 0.5 h
# [4] = Toxicity in nude mouse assessed as change in body weight at 0.2 mg/kg administered every 2 days for 21 days; format: organism-based; conditions: in vivo, 48 h, time 2 day
# ECa-109 cell line [5] = test: Reversal of vincristine-resistance in human Eca-109 cells assessed as fold reversal by measuring cell viability at 5 uM incubated for 48 hrs by CCK-8 method relative to vincristine alone; format: functional
# ECa-109 cell line [6] = test: Reversal of VCR -resistance in human Eca-109 cells assessed as cell viability at 5 uM incubated for 48 hrs by CCK-8 method (reference value: 6830.0+/-537.0 nM); format: functional, cell-based; conditions: ECa-109, 48 h
# ECa-109 cell line [7] = test: Induction of apoptosis in vincristine resistant human Eca-109 cells assessed as necrotic cells at 5 uM incubated for 24 hrs in presence of vincristine by AnnexinV-FITC/PI staining based flow cytometric analysis (reference value: 0.35%); format: functional
# ECa-109 cell line [8] = test: Induction of apoptosis in vincristine resistant human Eca-109 cells assessed as viable cells at 5 uM incubated for 24 hrs by AnnexinV-FITC/PI staining based flow cytometric analysis (reference value: 90.3%); format: functional; conditions: read-out: Activity
# ECa-109 cell line [9] = test: Induction of apoptosis in vincristine resistant human Eca-109 cells assessed as viable cells at 5 uM incubated for 24 hrs in presence of vincristine by AnnexinV-FITC/PI staining based flow cytometric analysis (reference value: 89.2%); format: functional; conditions: read-out: Activity
# ECa-109 cell line [10] = test: Induction of apoptosis in vincristine resistant human Eca-109 cells assessed as necrotic cells at 5 uM incubated for 24 hrs by AnnexinV-FITC/PI staining based flow cytometric analysis (reference value: 0.25%); format: functional
# ECa-109 cell line [11] = test: Induction of apoptosis in vincristine resistant human Eca-109 cells assessed as late apoptotic cells at 5 uM incubated for 24 hrs in presence of vincristine by AnnexinV-FITC/PI staining based flow cytometric analysis (reference value: 6.01%); format: functional
# ECa-109 cell line [12] = test: Induction of apoptosis in vincristine resistant human Eca-109 cells assessed as early apoptotic cells at 5 uM incubated for 24 hrs by AnnexinV-FITC/PI staining based flow cytometric analysis (reference value: 2.30%); format: functional
# ECa-109 cell line [13] = test: Induction of apoptosis in vincristine resistant human Eca-109 cells assessed as late apoptotic cells at 5 uM incubated for 24 hrs by AnnexinV-FITC/PI staining based flow cytometric analysis (reference value: 7.19%); format: functional
# ECa-109 cell line [14] = test: Induction of apoptosis in vincristine resistant human Eca-109 cells assessed as early apoptotic cells at 5 uM incubated for 24 hrs in presence of vincristine by AnnexinV-FITC/PI staining based flow cytometric analysis (reference value: 4.43%); format: functional
# [15] = Solubility of the compound in water at 25 degree C by shake flask method based UV-spectrophotometric method; format: physicochemical
# ATP-dependent translocase ABCB1, sequence (P08183 whole entry): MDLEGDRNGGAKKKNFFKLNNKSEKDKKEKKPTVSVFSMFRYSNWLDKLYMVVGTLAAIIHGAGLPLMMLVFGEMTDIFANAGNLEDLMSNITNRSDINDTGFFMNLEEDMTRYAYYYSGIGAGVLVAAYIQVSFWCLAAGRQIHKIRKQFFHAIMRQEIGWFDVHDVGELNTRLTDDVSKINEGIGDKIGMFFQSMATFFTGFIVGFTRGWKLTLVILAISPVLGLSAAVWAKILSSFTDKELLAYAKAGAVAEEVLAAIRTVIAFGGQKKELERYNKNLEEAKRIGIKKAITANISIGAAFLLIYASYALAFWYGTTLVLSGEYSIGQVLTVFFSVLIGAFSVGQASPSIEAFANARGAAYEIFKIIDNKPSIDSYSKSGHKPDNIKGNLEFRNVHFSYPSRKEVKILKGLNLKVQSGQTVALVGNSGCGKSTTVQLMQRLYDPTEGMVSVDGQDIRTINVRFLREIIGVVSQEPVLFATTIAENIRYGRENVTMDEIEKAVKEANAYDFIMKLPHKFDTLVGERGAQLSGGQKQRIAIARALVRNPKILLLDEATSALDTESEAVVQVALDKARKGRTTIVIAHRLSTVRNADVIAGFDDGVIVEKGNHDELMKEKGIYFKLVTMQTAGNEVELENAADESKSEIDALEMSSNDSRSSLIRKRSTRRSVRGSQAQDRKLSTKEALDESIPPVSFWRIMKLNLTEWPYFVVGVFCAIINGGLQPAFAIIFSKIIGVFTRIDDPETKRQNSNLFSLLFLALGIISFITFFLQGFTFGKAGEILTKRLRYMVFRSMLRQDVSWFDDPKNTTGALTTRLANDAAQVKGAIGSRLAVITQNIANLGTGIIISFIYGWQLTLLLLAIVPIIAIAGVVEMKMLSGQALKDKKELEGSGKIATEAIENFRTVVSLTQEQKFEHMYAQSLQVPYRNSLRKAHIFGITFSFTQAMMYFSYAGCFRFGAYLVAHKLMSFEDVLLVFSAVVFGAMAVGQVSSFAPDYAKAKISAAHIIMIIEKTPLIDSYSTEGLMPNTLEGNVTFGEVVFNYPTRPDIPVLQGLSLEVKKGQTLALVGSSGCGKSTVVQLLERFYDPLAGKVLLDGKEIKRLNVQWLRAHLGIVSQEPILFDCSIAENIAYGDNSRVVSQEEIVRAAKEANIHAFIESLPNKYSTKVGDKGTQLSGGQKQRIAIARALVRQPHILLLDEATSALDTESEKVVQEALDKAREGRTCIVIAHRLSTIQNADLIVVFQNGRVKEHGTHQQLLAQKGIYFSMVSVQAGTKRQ
compound,measurement,setting,value
COc1cc2c(cc1OC)C(Cc1ccc(C(F)(F)F)cc1)N(C)CC2 (stereo unspecified),Activity,ECa-109 cell line [1],91.7%
same,fold change (FC),ECa-109 cell line [2],3.5
COc1cc2c(cc1OC)C(Cc1ccccc1Cl)N(C)CC2 (stereo unspecified),Activity,ECa-109 cell line [1],96.3%
same,fold change (FC),ECa-109 cell line [2],13.4
CN1CCc2ccccc2C1=O,Activity,ECa-109 cell line [1],91.3%
same,fold change (FC),ECa-109 cell line [2],2.5
COc1cc2c(cc1OC)C(Cc1ccc(OC)c(OCC3CCOCC3)c1)N(C)CC2 (stereo unspecified),Activity,ECa-109 cell line [1],94.4%
same,fold change (FC),ECa-109 cell line [2],126.8
CCOc1ccc(CC2c3cc(OC)c(OC)cc3CCN2C)cc1OC (stereo unspecified),Activity,ECa-109 cell line [1],88%
same,fold change (FC),ECa-109 cell line [2],11.7
COc1cc2c(cc1OC)CN(CCc1ccc(NC(=O)c3cc(OC)c(OC)cc3NC(=O)c3cnc4ccccc4c3)cc1)CC2 [TARIQUIDAR],Activity,ECa-109 cell line [1],85.9%
same,fold change (FC),ECa-109 cell line [2],187.4
same,Activity,[3],Active
COc1cc2c(cc1OC)C(Cc1ccc(I)cc1)N(C)CC2 (stereo unspecified),Activity,ECa-109 cell line [1],99%
same,fold change (FC),ECa-109 cell line [2],2.9
COc1cc2c(cc1OC)CN(C)CC2,Activity,ECa-109 cell line [1],90.9%
same,fold change (FC),ECa-109 cell line [2],7.7
COc1cc(Br)c(CC2c3cc(OC)c(OC)cc3CCN2C)cc1OC (stereo unspecified),Activity,ECa-109 cell line [1],93.4%
same,fold change (FC),ECa-109 cell line [2],16
COc1cc2c(cc1OC)C(Cc1ccc(F)cc1)N(C)CC2 (stereo unspecified),Activity,ECa-109 cell line [1],99.3%
same,fold change (FC),ECa-109 cell line [2],2.8
COc1cc2c(cc1OC)C(Cc1ccc(C)cc1)N(C)CC2 (stereo unspecified),Activity,ECa-109 cell line [1],95.9%
same,fold change (FC),ECa-109 cell line [2],4.5
CC[C@]1(O)C[C@H]2CN(CCc3c([nH]c4ccccc34)[C@@](C(=O)OC)(c3cc4c(cc3OC)N(C=O)[C@H]3[C@@](O)(C(=O)OC)[C@H](OC(C)=O)[C@]5(CC)C=CCN6CC[C@]43[C@@H]65)C2)C1 [VINCRISTINE],Activity,[4],Non-Toxic
COc1cc2c(cc1OC)C(CC(F)(F)F)N(C)CC2 (stereo unspecified),Activity,ECa-109 cell line [1],88.2%
same,fold change (FC),ECa-109 cell line [2],3
COc1ccc(CC2c3cc(OC)c(OC)cc3CCN2C)cc1 (stereo unspecified),Activity,ECa-109 cell line [1],96.3%
same,fold change (FC),ECa-109 cell line [2],7.4
COc1cc2c(cc1OC)C(Cc1ccccc1)N(C)CC2 (stereo unspecified),Activity,ECa-109 cell line [1],93.7%
same,fold change (FC),ECa-109 cell line [2],4.4
COc1cc2c(cc1OC)C(CC1CCCCC1)N(C)CC2 (stereo unspecified),Activity,ECa-109 cell line [1],89.9%
same,fold change (FC),ECa-109 cell line [2],3.7
COc1cc2c(cc1OC)C(=O)N(C)CC2,Activity,ECa-109 cell line [1],98.4%
same,fold change (FC),ECa-109 cell line [2],3.2
COc1ccc2cc1Oc1ccc(cc1)C[C@H]1c3c(cc4c(c3Oc3cc5c(cc3OC)CCN(C)[C@@H]5C2)OCO4)CCN1C [CEPHARANTHINE],fold change (FC),ECa-109 cell line [5],15.6
same,IC50,ECa-109 cell line [6],0.437 µM
COc1ccc(CCN(C)CCCC(C#N)(c2ccc(OC)c(OC)c2)C(C)C)cc1OC (stereo unspecified) [VERAPAMIL],Activity,ECa-109 cell line [7],0.48%
same,Activity,ECa-109 cell line [1],95.6%
same,viability at 5 µM,ECa-109 cell line [8],89.3%
same,viability at 5 µM,ECa-109 cell line [9],68.8%
same,Activity,ECa-109 cell line [10],0.12%
same,Activity,ECa-109 cell line [11],10.5%
same,Activity,ECa-109 cell line [12],2.65%
same,fold change (FC),ECa-109 cell line [5],10.1
same,Activity,ECa-109 cell line [13],7.92%
same,Activity,ECa-109 cell line [14],20.3%
same,IC50,ECa-109 cell line [6],0.679 µM
same,fold change (FC),ECa-109 cell line [2],10.1
COc1ccc(CC2c3cc(OC)c(OC)cc3CCN2C)cc1OC (stereo unspecified) [LAUDANOSINE],Activity,ECa-109 cell line [1],90.7%
same,fold change (FC),ECa-109 cell line [2],12.9
COc1ccc2cc1Oc1ccc(cc1)C[C@H]1c3cc(c(OC)cc3CCN1C)Oc1c(OC)c(OC)cc3c1[C@H](C2)N(C)CC3 [FANCHININ],Activity,ECa-109 cell line [7],0.54%
same,Activity,ECa-109 cell line [1],87.1%
same,viability at 5 µM,ECa-109 cell line [8],88.2%
same,solubility thermodynamic,[15],0.0146 mg/mL
same,viability at 5 µM,ECa-109 cell line [9],67.5%
same,Activity,ECa-109 cell line [10],0.15%
same,Activity,ECa-109 cell line [11],13.1%
same,Activity,ECa-109 cell line [12],3.68%
same,fold change (FC),ECa-109 cell line [5],232.6
same,Activity,ECa-109 cell line [13],8.01%
same,Activity,ECa-109 cell line [14],18.8%
same,IC50,ECa-109 cell line [6],0.0294 µM
same,fold change (FC),ECa-109 cell line [2],232.6
COc1cc2c(cc1OC)C(CC(C)C)N(C)CC2 (stereo unspecified),Activity,ECa-109 cell line [1],96.1%
same,fold change (FC),ECa-109 cell line [2],3.3
CCOC(=O)CCCOc1cc(CC2c3cc(OC)c(OC)cc3CCN2C)ccc1OC (stereo unspecified),Activity,ECa-109 cell line [1],86.7%
same,fold change (FC),ECa-109 cell line [2],219.3
COc1cc2c(cc1OC)C(Cc1ccccc1O)N(C)CC2 (stereo unspecified),Activity,ECa-109 cell line [1],98.9%
same,fold change (FC),ECa-109 cell line [2],7.1
COc1cc2c(cc1OC)C(Cc1ccc(Cl)cc1)N(C)CC2 (stereo unspecified),Activity,ECa-109 cell line [1],93%
same,fold change (FC),ECa-109 cell line [2],8.6
COc1cc2c(cc1OC)C(Cc1ccc(OCCC3CCCCC3)c(OC)c1)N(C)CC2 (stereo unspecified),Activity,ECa-109 cell line [1],54.3%
same,fold change (FC),ECa-109 cell line [2],166.4
COc1cc2c(cc1OC)C(Cc1ccc(OC)c(OCCC3CCCCC3)c1)N(C)CC2 (stereo unspecified),Activity,ECa-109 cell line [1],81%
same,fold change (FC),ECa-109 cell line [2],143.3
COc1cc2c(cc1OC)C(Cc1ccc(OC)c(OCc3ccccc3)c1)N(Cc1ccccc1)CC2 (stereo unspecified),Activity,ECa-109 cell line [1],68.8%
same,fold change (FC),ECa-109 cell line [2],42.7
COc1cc2c(cc1OC)C1Cc3ccc(OC)c(O)c3CN1CC2 (stereo unspecified),Activity,ECa-109 cell line [1],74.2%
same,fold change (FC),ECa-109 cell line [2],1.2
COc1cc2c(cc1OC)C(Cc1ccc(C#N)cc1)N(C)CC2 (stereo unspecified),Activity,ECa-109 cell line [1],99.8%
same,fold change (FC),ECa-109 cell line [2],3.6
COc1cc(CC2c3cc(OC)c(OC)cc3CCN2C)ccc1O (stereo unspecified),Activity,ECa-109 cell line [1],90.3%
same,fold change (FC),ECa-109 cell line [2],2.8
COc1cc2c(cc1OC)C(C)N(C)CC2 (stereo unspecified),Activity,ECa-109 cell line [1],91.1%
same,fold change (FC),ECa-109 cell line [2],2.6
COc1cc2c(cc1OC)C(c1ccc(O)cc1)N(C)CC2 (stereo unspecified),Activity,ECa-109 cell line [1],87.7%
same,fold change (FC),ECa-109 cell line [2],1.8
COc1cc2c(cc1OC)C(Cc1ccc3c(c1)OCO3)N(C)CC2 (stereo unspecified),Activity,ECa-109 cell line [1],90.8%
same,fold change (FC),ECa-109 cell line [2],5
COc1cc2c(cc1OC)C(Cc1cccc(O)c1)N(C)CC2 (stereo unspecified),Activity,ECa-109 cell line [1],99.2%
same,fold change (FC),ECa-109 cell line [2],4.3
COc1cc2c(cc1OC)C(Cc1cccc(Cl)c1)N(C)CC2 (stereo unspecified),Activity,ECa-109 cell line [1],89%
same,fold change (FC),ECa-109 cell line [2],23.6
CN1CCc2cc(Br)ccc2C1=O,Activity,ECa-109 cell line [1],88.6%
same,fold change (FC),ECa-109 cell line [2],2
COc1cc2c(cc1OC)C(Cc1ccc([N+](=O)[O-])cc1)N(C)CC2 (stereo unspecified),Activity,ECa-109 cell line [1],87.1%
same,fold change (FC),ECa-109 cell line [2],2.3
COc1ccc(CC2c3cc(OC)c(OC)cc3CCN2C)cc1O (stereo unspecified),Activity,ECa-109 cell line [1],903%
same,fold change (FC),ECa-109 cell line [2],2.5
COc1cc2c(cc1OC)C(Cc1ccc(O)cc1)N(C)CC2 (stereo unspecified),Activity,ECa-109 cell line [1],98.1%
same,fold change (FC),ECa-109 cell line [2],2.8
COc1cc2c(cc1OC)C(Cc1ccc(OC)c(OCC3CCCCC3)c1)N(C)CC2 (stereo unspecified),Activity,ECa-109 cell line [1],88.1%
same,fold change (FC),ECa-109 cell line [2],140.3
CCC1c2cc(OC)c(OC)cc2CCN1C (stereo unspecified),Activity,ECa-109 cell line [1],90.6%
same,fold change (FC),ECa-109 cell line [2],4.2
COc1cc2c(cc1OC)C(Cc1ccc(Br)cc1)N(C)CC2 (stereo unspecified),Activity,ECa-109 cell line [1],92.8%
same,fold change (FC),ECa-109 cell line [2],1.6
COc1cc2c(cc1OC)C(Cc1ccc(OC)c(OCCC(C)C)c1)N(C)CC2 (stereo unspecified),Activity,ECa-109 cell line [1],87.1%
same,fold change (FC),ECa-109 cell line [2],205.7
COc1ccc(C[C@@H]2c3cc(Oc4cc(C[C@@H]5c6cc(OC)c(OC)cc6CCN5C)ccc4O)c(OC)cc3CCN2C)cc1 [NEFERINE],fold change (FC),ECa-109 cell line [5],1.8
same,IC50,ECa-109 cell line [6],3.79 µM
